Experimental data published in patent US8722676B2, “Bicyclic piperazine compounds” (Genentech, Inc., priority 2011, dated 2014).

System: production of CD69 by B lymphocytes in human whole blood activated with goat F(ab')2 anti-human IgM
Test: CD69 Whole Blood Assay (CD69 Hu Blood FACS)
Format: cell-based
Conditions: anti-IgM stimulated, 20 hour incubation, CD69+ of CD20+ cells, Table 2
Text: A CD69 Whole Blood Assay can be conducted on Formula I compounds to determine the ability of compounds to inhibit the production of CD69 by B lymphocytes in human whole blood activated by crosslinking surface IgM with goat F(ab′)2 anti-human IgM (Example 907). CD69 is a type II C-type lectin involved in lymphocyte migration and cytokine secretion. CD69 expression represents one of the earliest available indicators of leukocyte activation and its rapid induction occurs through transcriptional activation (Vazquez et al (2009) Jour. of Immunology Published Oct. 19, 2009, doi:10.4049/jimmunol.0900839). Concentration-dependent inhibition of antigen receptor stimulation by selective Btk inhibitors induces cell surface expression of the lymphocyte activation marker CD69 (Honigberg et al (2010) Proc. Natl. Acad. Sci. 107(29):13075-13080). Thus, CD69 inhibition by selective Btk inhibitors may be correlated with therapeutic efficacy of certain B-cell disorders.
Human blood is obtained from healthy volunteers, with the following restrictions: 1 week drug-free, non-smokers. Blood (approximately 20 mls to test 8 compounds) is collected by venipuncture into Vacutainer® (Becton, Dickinson and Co.) tubes with sodium heparin.
Solutions of Formula I compounds at 10 mM in DMSO are diluted 1:10 in 100% DMSO, then are diluted by three-fold serial dilutions in 100% DMSO for a ten point dose-response curve. The compounds are further diluted 1:10 in PBS and then an aliquot of 5.5 μl of each compound is added in duplicate to a 2 ml 96-well plate; 5.5 μl of 10% DMSO in PBS is added as control and no-stimulus wells. Human whole blood—HWB (100 μl) is added to each well. After mixing the plates are incubated at 37° C., 5% CO2, 100% humidity for 30 minutes. Goat F(ab′)2 anti-human IgM (10 μl of a 500 μg/ml solution, 50 μg/ml final) is added to each well (except the no-stimulus wells) with mixing and the plates are incubated for an additional 20 hours. At the end of the 20 hour incubation, samples are incubated with fluorescent labeled antibodies for 30 minutes, at 37° C., 5% CO2, 100% humidity. Include induced control, unstained and single stains for compensation adjustments and initial voltage settings. Samples are then lysed with PharM Lyse™ (BD Biosciences Pharmingen) according to the manufacturer's instructions. Samples are then transferred to a 96 well plate suitable to be run on the BD Biosciences HTS 96 well system on the LSRII machine. Data acquired and Mean Fluorescence Intensity values were obtained using BD Biosciences DIVA Software. Results are initially analyzed by FACS analysis software (Flow Jo).

Structure (SMILES)	CD69 Hu Blood FACS IC70 [nM]
O=C1c2cc3c(n2CCN1c1nccc(-c2cc(Nc4ccc(N5CCN(C6COC6)CC5)cn4)c4nccn4c2)c1CO)CCCC3 [Compound 121, 2-[3-(hydroxymethyl)-4-[8-[[5-[4-(oxetan-3-yl)piperazin-1-yl]-2-pyridyl]amino]imidazo[1,2-a]pyridin-6-yl]-2-pyridyl]-3,4,6,7,8,9-hexahydropyrazino[1,2-a]indol-1-one]	279
O=C1c2cc3c(n2CCN1c1nccc(-c2cc(Nc4ccc(N5CCN(C6COC6)CC5)cn4)c4ncnn4c2)c1CO)CCCC3 [Compound 122, 2-[3-(hydroxymethyl)-4-[8-[[5-[4-(oxetan-3-yl)piperazin-1-yl]-2-pyridyl]amino]-[1,2,4]triazolo[1,5-a]pyridin-6-yl]-2-pyridyl]-3,4,6,7,8,9-hexahydropyrazino[1,2-a]indol-1-one]	208
CC1(C)Cc2cc3n(c2C1)CCN(c1cc(F)cc(-c2nc(Nc4ccc(N5CCN(C6COC6)CC5)cc4)c4nc[nH]c4n2)c1CO)C3=O [Compound 123, 3-[5-fluoro-2-(hydroxymethyl)-3-[6-[4-[4-(oxetan-3-yl)piperazin-1-yl]anilino]-9H-purin-2-yl]phenyl]-7,7-dimethyl-1,2,6,8-tetrahydrocyclopenta[3,4]pyrrolo[3,5-b]pyrazin-4-one]	256
CN1CCn2nc(Nc3cc(-c4ccnc(N5CCn6c(cc7c6CCCC7)C5=O)c4CO)nn4ccnc34)cc2C1 [Compound 124, 2-[3-(hydroxymethyl)-4-[8-[(5-methyl-6,7-dihydro-4H-pyrazolo[1,5-a]pyrazin-2-yl)amino]imidazo[1,2-b]pyridazin-6-yl]-2-pyridyl]-3,4,6,7,8,9-hexahydropyrazino[1,2-a]indol-1-one]	333
